Experimental data published in PubChem BioAssay (NCI).
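96-well plates; 48 h exposure; 5 concentrations. Endpoints by linear interpolation between flanking doses. Not reached: highest tested concentration assigned. At the GI50, growth is halved. The concentration for full growth arrest is given as TGI.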

How the values were obtained:
Assay in all cases: DTP human tumour cell line panel, 48 h
786-0 renal = test system: 786-0 renal
A498 renal = test system: A498 renal
A549 NSCLC = test system: A549 NSCLC
ACHN renal = test system: ACHN renal
BT-549 breast = test system: BT-549 breast
CAKI-1 renal = test system: CAKI-1 renal
CCRF-CEM leukemia = test system: CCRF-CEM leukemia
COLO 205 colon = test system: COLO 205 colon
DU-145 prostate = test system: DU-145 prostate
EKVX NSCLC = test system: EKVX NSCLC
HCC-2998 colon = test system: HCC-2998 colon
HCT-116 colon = test system: HCT-116 colon
HCT-15 colon = test system: HCT-15 colon
HL-60(TB) leukemia = test system: HL-60(TB) leukemia
HOP-62 NSCLC = test system: HOP-62 NSCLC
HS 578T breast = test system: HS 578T breast
HT29 colon = test system: HT29 colon
IGROV1 ovarian = test system: IGROV1 ovarian
K-562 leukemia = test system: K-562 leukemia
KM12 colon = test system: KM12 colon
LOX IMVI melanoma = test system: LOX IMVI melanoma
M14 melanoma = test system: M14 melanoma
MALME-3M melanoma = test system: MALME-3M melanoma
MCF7 breast = test system: MCF7 breast
MDA-MB-231 breast = test system: MDA-MB-231 breast
MDA-MB-435 = test system: MDA-MB-435
MOLT-4 leukemia = test system: MOLT-4 leukemia
NCI-H226 lung = test system: NCI-H226 lung
NCI-H23 lung = test system: NCI-H23 lung
NCI-H460 lung = test system: NCI-H460 lung
NCI-H522 lung = test system: NCI-H522 lung
NCI/ADR-RES ovarian = test system: NCI/ADR-RES ovarian
OVCAR-3 ovarian = test system: OVCAR-3 ovarian
OVCAR-4 ovarian = test system: OVCAR-4 ovarian
OVCAR-5 ovarian = test system: OVCAR-5 ovarian
OVCAR-8 ovarian = test system: OVCAR-8 ovarian
PC-3 prostate = test system: PC-3 prostate
RPMI-8226 leukemia = test system: RPMI-8226 leukemia
RXF 393 renal = test system: RXF 393 renal
SF-268 CNS = test system: SF-268 CNS
SF-295 CNS = test system: SF-295 CNS
SF-539 CNS = test system: SF-539 CNS
SK-MEL-2 melanoma = test system: SK-MEL-2 melanoma
SK-MEL-28 melanoma = test system: SK-MEL-28 melanoma
SK-MEL-5 melanoma = test system: SK-MEL-5 melanoma
SK-OV-3 ovarian = test system: SK-OV-3 ovarian
SN12C renal = test system: SN12C renal
SNB-19 CNS = test system: SNB-19 CNS
SNB-75 CNS = test system: SNB-75 CNS
SR leukemia = test system: SR leukemia
SW-620 colon = test system: SW-620 colon
T-47D breast = test system: T-47D breast
TK-10 renal = test system: TK-10 renal
U251 CNS = test system: U251 CNS
UACC-257 melanoma = test system: UACC-257 melanoma
UACC-62 melanoma = test system: UACC-62 melanoma
UO-31 renal = test system: UO-31 renal

COc1ccc(/C=C/C(=O)c2c(O)c(C)c(O)c3c2OC2=CC(O)=C(C(C)=O)C(=O)[C@]23C)cc1
GI50 (786-0 renal): 2440 nM
TGI (786-0 renal): 7590 nM
GI50 (A498 renal): 770 nM
TGI (A498 renal): 2980 nM
GI50 (A549 NSCLC): 1330 nM
TGI (A549 NSCLC): 7260 nM
GI50 (ACHN renal): 1030 nM
TGI (ACHN renal): 10400 nM
GI50 (BT-549 breast): 931 nM
TGI (BT-549 breast): 5260 nM
GI50 (CAKI-1 renal): 694 nM
TGI (CAKI-1 renal): 8190 nM
GI50 (CCRF-CEM leukemia): 702 nM
TGI (CCRF-CEM leukemia): 9970 nM
GI50 (COLO 205 colon): 1930 nM
TGI (COLO 205 colon): 4540 nM
GI50 (DU-145 prostate): 1230 nM
TGI (DU-145 prostate): 7840 nM
GI50 (EKVX NSCLC): 676 nM
TGI (EKVX NSCLC): 5320 nM
GI50 (HCC-2998 colon): 1960 nM
TGI (HCC-2998 colon): 5120 nM
GI50 (HCT-116 colon): 610 nM
TGI (HCT-116 colon): 2490 nM
GI50 (HCT-15 colon): 706 nM
TGI (HCT-15 colon): 3480 nM
GI50 (HL-60(TB) leukemia): 603 nM
TGI (HL-60(TB) leukemia): 5850 nM
GI50 (HOP-62 NSCLC): 1920 nM
TGI (HOP-62 NSCLC): 6130 nM
GI50 (HS 578T breast): 2900 nM
TGI (HS 578T breast): 8760 nM
GI50 (HT29 colon): 860 nM
TGI (HT29 colon): 4330 nM
GI50 (IGROV1 ovarian): 932 nM
TGI (IGROV1 ovarian): 8020 nM
GI50 (K-562 leukemia): 627 nM
TGI (K-562 leukemia): > 17500 nM
GI50 (KM12 colon): 1040 nM
TGI (KM12 colon): 5900 nM
GI50 (LOX IMVI melanoma): 1800 nM
TGI (LOX IMVI melanoma): 4570 nM
GI50 (M14 melanoma): 925 nM
TGI (M14 melanoma): 4820 nM
GI50 (MALME-3M melanoma): 2230 nM
TGI (MALME-3M melanoma): 5220 nM
GI50 (MCF7 breast): 610 nM
TGI (MCF7 breast): 3800 nM
GI50 (MDA-MB-231 breast): 1040 nM
TGI (MDA-MB-231 breast): 5660 nM
GI50 (MDA-MB-435): 1920 nM
TGI (MDA-MB-435): 4110 nM
GI50 (MOLT-4 leukemia): 698 nM
TGI (MOLT-4 leukemia): > 17500 nM
GI50 (NCI-H226 lung): 2610 nM
TGI (NCI-H226 lung): 6750 nM
GI50 (NCI-H23 lung): 598 nM
TGI (NCI-H23 lung): 3130 nM
GI50 (NCI-H460 lung): 898 nM
TGI (NCI-H460 lung): 3710 nM
GI50 (NCI-H522 lung): 511 nM
TGI (NCI-H522 lung): 2330 nM
GI50 (NCI/ADR-RES ovarian): 956 nM
TGI (NCI/ADR-RES ovarian): 4580 nM
GI50 (OVCAR-3 ovarian): 649 nM
TGI (OVCAR-3 ovarian): 2830 nM
GI50 (OVCAR-4 ovarian): 2210 nM
TGI (OVCAR-4 ovarian): 10000 nM
GI50 (OVCAR-5 ovarian): 4200 nM
TGI (OVCAR-5 ovarian): > 17500 nM
GI50 (OVCAR-8 ovarian): 631 nM
TGI (OVCAR-8 ovarian): 2350 nM
GI50 (PC-3 prostate): 611 nM
TGI (PC-3 prostate): 2340 nM
GI50 (RPMI-8226 leukemia): 596 nM
TGI (RPMI-8226 leukemia): 1880 nM
GI50 (RXF 393 renal): 1960 nM
TGI (RXF 393 renal): 4990 nM
GI50 (SF-268 CNS): 871 nM
TGI (SF-268 CNS): 4720 nM
GI50 (SF-295 CNS): 821 nM
TGI (SF-295 CNS): 5110 nM
GI50 (SF-539 CNS): 2710 nM
TGI (SF-539 CNS): 6440 nM
GI50 (SK-MEL-2 melanoma): 961 nM
TGI (SK-MEL-2 melanoma): 3720 nM
GI50 (SK-MEL-28 melanoma): 1150 nM
TGI (SK-MEL-28 melanoma): 4720 nM
GI50 (SK-MEL-5 melanoma): 1290 nM
TGI (SK-MEL-5 melanoma): 3610 nM
GI50 (SK-OV-3 ovarian): 1790 nM
TGI (SK-OV-3 ovarian): 7050 nM
GI50 (SN12C renal): 603 nM
TGI (SN12C renal): 2480 nM
GI50 (SNB-19 CNS): 1560 nM
TGI (SNB-19 CNS): 7800 nM
GI50 (SNB-75 CNS): 2800 nM
TGI (SNB-75 CNS): 5950 nM
GI50 (SR leukemia): 1170 nM
TGI (SR leukemia): > 17500 nM
GI50 (SW-620 colon): 659 nM
TGI (SW-620 colon): 3790 nM
GI50 (T-47D breast): 521 nM
TGI (T-47D breast): 2660 nM
GI50 (TK-10 renal): 597 nM
TGI (TK-10 renal): 5100 nM
GI50 (U251 CNS): 801 nM
TGI (U251 CNS): 4210 nM
GI50 (UACC-257 melanoma): 3110 nM
TGI (UACC-257 melanoma): 10000 nM
GI50 (UACC-62 melanoma): 891 nM
TGI (UACC-62 melanoma): 3480 nM
GI50 (UO-31 renal): 3450 nM
TGI (UO-31 renal): 10600 nM
